Reference: patent US5089623A, “Certain imidate insecticides” (Imperial Chemical Industries Plc, priority 1990, dated 1992)

Legend:
Format in all cases: in vivo
[1] = test system: Housefly [Musca domestica]; test: Housefly insecticidal test (HF); details: per 25 female houseflies, 48 hours
[2] = test system: Tobacco Budworm [Heliothis virescens (Fabricius)] eggs; test: Tobacco budworm egg test (TBW-E); details: percent in solution
[3] = test system: Beet Armyworm (Spodoptera exigua); test: Beet armyworm test (BAW); details: second-instar larvae, five days, percent in solution
Experimental: (§1) The compounds in Tables 1 and 2 above were tested for insecticidal activity using the following testing procedures. LC50 values, based on the results of these tests and calculated according to dosage-mortality curves, are expressed in Table 3.
Beet Armyworm (Spodoptera exigua)
Test compounds were diluted in a 50-50 acetone-water solution. Young leaves of sugar beets (Beta vulgaris) were immersed in the test solutions for 2-3 seconds and placed on a wire screen to dry. The dried leaves were placed in petri dishes containing a moistened filter paper and infested with five second-instar beet armyworm larvae. The dishes were placed in a high humidity chamber. Mortality of the larvae was recorded five days later. Test concentrations ranged from 0.1% downward. The LC-50 values are expressed below in Table 3 under the heading "BAW" in terms of percent of the test compound in solution.

[4] = test system: Aster Leafhopper [Macrosteles fascifrens (Stal)]; test: Aster leafhopper test (LH); details: adults/nymphs, 48 hours, percent in solution
[5] = test system: Cabbage Looper [Trichoplusia ni (Hubner)]; test: Cabbage looper test (CL); details: second-instar larvae, 3-5 days, percent in solution
[6] = test system: Maize weevil [Sitophilus Zeamais (Motschulsky)]; test: Maize weevil test (MW); details: adult weevils, treated corn seeds, 48 hours, percent in solution
Method in brief: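 Adult weevils (10) were placed with four corn seeds that had been dipped 2-3 s in compound dissolved in 50:50 acetone:water, then dried, and held at about 25° C. Mortality was scored at 48 h. LC50 was taken from dosage-mortality curves and expressed as percent compound in solution, from a 0.01% top concentration.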

[7] = test system: Tobacco Budworm [Heliothis virescens (Fabricius)]; test: Tobacco budworm contact test (TBW-C); details: second-instar larvae, 5 days, percent in solution
Experimental: as §1
Tobacco Budworm [Heliothis virescens (Fabricius)]
(a) Contact: Test compounds were diluted in a 50-50 acetonewater solution. Cotton (Gossypium sp.) cotyledons were immersed in the test solutions for 2-3 seconds and placed on a wire screen to dry. The dried leaves were placed in petri dishes containing a moistened piece of filter paper and infested with 5 second-instar tobacco budworm larvae. The dishes were placed in a high humidity chamber for 5 days, and percent mortality of the larvae recorded. Test concentrations ranged from 0.1% downward. The LC-50 values are expressed below in Table 3 under the heading "TBW-C" in terms of percent of the test compound in the solution.

| SMILES | LC50 HF [1] | LC50 TBW E [2] | LC50 BAW [3] | LC50 LH [4] | LC50 CL [5] | LC50 MW [6] | LC50 TBW C [7] |
| --- | --- | --- | --- | --- | --- | --- | --- |
| CC(C)C(=Nc1cccc(Cl)c1)OCc1cccc(Oc2ccccc2)c1 [Compound 7] | 8 µg | 0.009% | 0.006% | 0.0002% | 0.006% | – | – |
| CC(C)C(=Nc1ccc(Cl)c(Cl)c1)OCc1cccc(Oc2ccccc2)c1 [Compound 14] | 40 µg | – | 0.005% | 0.001% | 0.004% | 0.01% | – |
| CC(C)C(=Nc1ccc(Cl)cc1)OCc1ccc(F)c(Oc2ccccc2)c1 [Compound 23] | 5 µg | 0.017% | 0.001% | – | 0.0005% | – | – |
| Clc1ccccc1N=C(OCc1cccc(Oc2ccccc2)c1)C(Cl)Cl [Compound 34] | > 100 µg | > 0.1% | 0.015% | – | 0.015% | – | 0.01% |
| CC(C)C(=Nc1ccc(F)cc1)OCc1cccc(Oc2ccccc2)c1 [Compound 46] | 7 µg | 0.016% | 0.006% | 0.002% | 0.003% | – | – |
| CC(C)C(=Nc1ccc(F)cc1)OCc1ccc(F)c(Oc2ccccc2)c1 [Compound 53] | 2 µg | 0.02% | 0.003% | – | 0.0005% | – | 0.0025% |
| CC(C)C(=Nc1cccc(C(F)(F)F)c1)OCc1cccc(Oc2ccccc2)c1 [Compound 67] | 15 µg | 0.01% | 0.006% | 0.00027% | 0.001% | – | – |
| Cc1c(Cl)cccc1N=C(OCc1cccc(Oc2ccccc2)c1)C(Cl)Cl [Compound 97] | 10 µg | 0.04% | 0.01% | – | 0.002% | – | 0.004% |
| CCC(C)C(=Nc1ccc(F)c(Cl)c1)OCc1cccc(Oc2ccccc2)c1 (stereo not shown) [Compound 122] | 37 µg | 0.05% | 0.01% | > 0.05% | 0.0007% | – | – |
| Cc1ccc(N=C(OCc2cccc(Oc3ccccc3)c2)C(Cl)Cl)cc1 [Compound 139] | 4.2 µg | 0.05% | 0.007% | – | 0.015% | – | 0.005% |
| O=[N+]([O-])c1ccc(N=C(OCc2cccc(Oc3ccccc3)c2)C(Cl)Cl)cc1 [Compound 173] | 18 µg | > 0.1% | > 0.1% | – | 0.02% | – | > 0.1% |
| O=[N+]([O-])c1cccc(N=C(OCc2cccc(Oc3ccccc3)c2)C(Cl)Cl)c1 [Compound 174] | 17 µg | > 0.1% | 0.1% | – | 0.03% | – | – |
| CC(C)C(=Nc1ccc(F)cc1F)OCc1cccc(Oc2ccc(F)cc2)c1 [Compound 209] | 17 µg | 0.1% | – | 0.001% | 0.0007% | > 0.01% | 0.005% |
| CC(C)C(=Nc1ccc(Br)cc1)OCc1cccc(Oc2ccc(F)cc2)c1 [Compound 226] | 16 µg | 0.1% | – | 0.002% | 0.0005% | 0.009% | 0.001% |
| CC(C)C(=Nc1ccc(I)cc1)OCc1cccc(Oc2ccc(F)cc2)c1 [Compound 234] | 38 µg | 0.09% | – | 0.003% | 0.00045% | > 0.01% | 0.0013% |
| CC(C)C(=Nc1ccc(F)c(Cl)c1)OCc1cccc(Oc2ccc(Br)cc2)c1 [Compound 238] | 25 µg | 0.05% | – | > 0.05% | 0.0002% | > 0.01% | 0.0004% |

| SMILES | LC50 HF [1] | LC50 TBW E [2] | LC50 BAW [3] | LC50 LH [4] | LC50 CL [5] | LC50 MW [6] | LC50 TBW C [7] |
| --- | --- | --- | --- | --- | --- | --- | --- |
| CC(C)C(=Nc1ccc(F)c(Br)c1)OCc1cccc(Oc2ccc(F)cc2)c1 [Compound 253] | 10 µg | > 0.1% | – | 0.003% | 0.00013% | > 0.01% | 0.0005% |
| CC(C)C(=Nc1ccc(Br)c(F)c1)OCc1ccc(F)c(Oc2ccc(F)cc2)c1 [Compound 282] | 16 µg | 0.02% | 0.0025% | – | 0.00007% | 0.008% | 0.0007% |
| CC(C)C(=Nc1ccc2c(c1)OC(C)(C)O2)OCc1ccc(F)c(Oc2ccc(F)cc2)c1 [Compound 283] | 23 µg | 0.016% | 0.0013% | – | 0.00009% | > 0.01% | 0.0009% |
| CC(C)C(=Nc1ccc(F)c(C(F)(F)F)c1)OCc1ccc(F)c(Oc2ccc(Cl)cc2)c1 [Compound 297] | 23 µg | 0.025% | – | 0.0001% | 0.00027% | 0.0071% | 0.00075% |
| CC(C)C(=Nc1ccc(F)c(I)c1)OCc1ccc(F)c(Oc2ccc(Cl)cc2)c1 [Compound 326] | 25 µg | 0.03% | 0.004% | – | 0.00015% | – | 0.0005% |
| CC(C)C(=Nc1ccc(F)c(Cl)c1F)OCc1cccc(Oc2ccccc2)c1 [Compound 332] | 7 µg | 0.015% | 0.0012% | – | 0.00045% | – | 0.00075% |
| CC(C)C(=Nc1ccc(Br)cc1)OCc1ccc(F)c(Oc2ccc(F)cc2)c1 [Compound 333] | 15 µg | 0.025% | > 0.1% | – | 0.00024% | > 0.01% | 0.00075% |
| CC(C)C(=Nc1ccc(I)cc1)OCc1ccc(F)c(Oc2ccc(F)cc2)c1 [Compound 335] | 34 µg | 0.05% | > 0.1% | – | 0.00027% | > 0.01% | 0.00025% |
| CC(C)C(=Nc1ccc(F)c(Cl)c1)OCc1cccc(Oc2ccccc2)n1 [Compound 462] | 7 µg | 0.04% | – | 0.001% | 0.001% | > 0.05% | 0.0025% |
| CC(C)C(=Nc1ccc(F)c(Cl)c1)OCc1cccc(Oc2ccc(Cl)cc2)n1 [Compound 463] | 8 µg | 0.0075% | 0.0024% | 0.0003% | 0.00009% | 0.01% | – |
| CC(C)C(=Nc1ccc(F)c(Cl)c1F)OCc1cccc(Oc2ccc(Cl)cc2)n1 [Compound 500] | 16 µg | 0.02% | 0.002% | – | 0.00009% | – | 0.00075% |
| C#CCc1c(F)c(F)c(COC(=Nc2ccc(F)c(Cl)c2)C(C)C)c(F)c1F [Compound 520] | 5.5 µg | > 0.1% | – | 0.0003% | > 0.1% | 0.0042% | 0.00075% |
| CC(C)C(=Nc1ccc(F)c(Cl)c1F)OCc1cccc(Oc2ccc(F)cc2)n1 [Compound 521] | 7.5 µg | > 0.1% | – | 0.05% | 0.00005% | 0.01% | 0.0005% |
| CC(C)C(=Nc1ccc(Cl)c(Cl)c1)OCc1cccc(Oc2ccc(Cl)cc2)n1 [Compound 523] | 22 µg | > 0.1% | – | > 0.05% | 0.00015% | > 0.01% | 0.0002% |
| CC(C)C(=Nc1ccc(C(F)(F)F)cc1)OCc1cccc(Oc2ccc(Cl)cc2)n1 [Compound 530] | 9.8 µg | 0.005% | – | 0.05% | 0.00027% | > 0.01% | 0.00005% |
| CC(C)C(=Nc1ccc(F)c(Cl)c1)OCc1cccc(Oc2ccc(F)c(F)c2)n1 [Compound 531] | 5 µg | > 0.1% | – | > 0.05% | > 0.1% | > 0.01% | 0.00037% |
